Measured values published in patent US10905738B2, “Synthetic peptides, prodrugs, pharmaceutical compositions and uses” (Biozeus Desenvolvimento De Produtos Biofarmacêuticos, priority 2018, dated 2021).
Where a SMILES comes first, the peptide text is derived from it.

Tests used:
cavernosal strips = assay: relaxation induced by electric stimuli in cavernosal strips pre-contracted with phenylephrine ex vivo; set-up: species or system rats of Sprague Dawley (SD) lineage; settings: peptides 10^−10 M; 10^−8 M; 10^−6 M; FIG. 3
Protocol: The relaxing potential of the peptides of the present invention on the smooth muscles of cavernous strips was evaluated ex vivo using tissue isolated from rats, a model that is largely used to test drug candidates for the treatment of ED (ITALIANO, G., CALABRÒ, A., PAGANO, F. A simplified in vitro preparation of the corpus cavernosum as a tool for investigating erectile pharmacology in the rat. Pharmacological research, 30(4): 325-334. 1994; GEMALMAZ, H., WALDECK, K., CHAPMAN, T. N., TUTTLE, J. B., STEERS, W. D., ANDERSSON, K E. In vivo and in vitro investigation of the effects of sildenafil on rat cavernous smooth muscle. The Journal of Urology, 165(3): 1010-1014.2001).
Male rats of Sprague Dawley (SD) lineage were sacrificed by guillotine; the penises were removed surgically and placed on a Petri dish containing Krebs—bicarbonate solution (NaCl 118.1 mM; KCl 4.7 mM; KH2PO4 1.0 mM; MgSO4 1.0 mM; NaHCO3 25.0 mM; CaCl2) 2.5 mM and Glucose 11.1 mM). The corpus cavernosum were dissected by removing the glans, urethra, spongeous body and dorsal vein, and then separated by cutting the fibrous septum between them. Cavernosal strips measuring 2×2×7 mm were mounted separately in a bath for isolated organs containing bicarbonate solution-Krebs (pH 7.4) at 37° C., aerated with 95% of O02 and 5% of CO2. The tissue was connected to a tension transducer and the changes in tension were continuously registered. The cavernosal strips were contracted with phenylephrine (10^−5 M) and subsequently relaxed by electrical stimulation at different frequencies (1 to 32 Hz). […] Differences in the percentage of relaxation between treatment and control were evaluated with regard to statistical significance by means of two-way variance analysis (Two-Way ANOVA) followed by Bonferroni post-test. For the comparison between the treatments and control in light of the stimulation in a single frequency, the results were evaluated by one-way analysis variance (One-Way ANOVA) followed by Bonferroni post-test. […]

[1] = test system: smooth muscle of tracheal rings; assay: spasmodic contraction of tracheal rings ex vivo (histamine-induced); set-up: species or system Dunkin-Hartley guinea pigs; settings: for Effectiveness (Emax) (%): relaxation of tracheal rings contracted by histamine (50 μM); for Effectiveness (Emax) (%) / Potency (pEC50) Molar: mean±SEM; for Potency (pEC50) Molar: tracheal rings contracted by histamine (50 μM), peptides 0.01 to 10 μM
Protocol: The magnitude of the relaxing effect of the peptides was evaluated by means of a model of spasmodic contraction of tracheal rings ex vivo, largely employed to test new bronchodilating agents (see CULLUM, V. A., FARMER, J. B., JACK, D., LEVY, G. P. Salbutamol: a new, selective β-adrenoceptive receptor stimulant. British journal of pharmacology, 35(1): 141-151. 1969; KAO, C. H., CHU, Y. H., WANG, H. W. Effects of lidocaine on rat's isolated tracheal smooth muscle. European Archives of Oto-Rhino-Laryngology, 267(5): 817-820. 2010; SORIANO-URSÚA, M. A., VALENCIA-HERNÁNDEZ, I., ARELLANO-MENDOZA, M. G., CORREA-BASURTO, J., TRUJILLO-FERRARA, J. G. Synthesis, pharmacological and in silico evaluation of 1-(4-dihydroxy-3, 5-dioxa-4-borabycyclo [4.4.0] deca-7,9,11-trien-9-yl)-2-(tert-butylamine) ethanol, a compound designed to act as a β2 adrenoceptor agonist. European journal of medicinal chemistry, 44(7): 2840-2846. 2009).
For each test, Dunkin-Hartley guinea pigs (400-500 g) were euthanized in a CO2 atmosphere; subsequently, the trachea was exposed, removed and sectioned in segments of 1 to 3 cartilaginous tracheal rings. Each segment was transferred to an individual organ bath system containing Krebs nutritive solution (NaCl 118 mM; KCl […]; CaCl2) 2.5 mM; MgSO4 1.2 mM; KH2PO4 1.2 mM; NaHCO324 mM; glucose 11 mM) at 37° C., under constant aeration with a carbogenic mixture (95% of O2 and 5% of CO2). In each system, a stem fixed to the base of the container and another connected to an isometric transducer (GRASS FT-03) made up the support of the fragments. A data digitizing system connected to the isometric transducer allowed the recording of tension variations produced by the contraction of the tracheal rings (PowerLab™ 16/30, LabChart, version 8.1, AD Instruments, Australia). The basal tension was adjusted to 1 g, and subsequently, the contractility of the fragments was evaluated by a stimulus with carbachol (2.5 μM). After 1 h at rest, the basal tension was recovered and the tissues were subjected to contraction induced by histamine (50 μM) followed by exposure to increasing concentrations of the treatments (0.01 to 10 μM; n=8) or the comparator PnTx(19).
Table 1 lists the mean±SEM of the potency values, shown as the negative logarithm of the concentration that reduced the voltage to 50% of the maximum Histamine-induced contraction (pEC50), and efficacy (Emax), calculated from at least 8 independent tests using the sigmoid nonlinear regression equation of the software Graph Prism 5.0 (GraphPad Software, La Jolla, Ca, USA).

[2] = test system: house dust mite (HDM) sensitized A/J mice; assay type: in vivo, Male A/J mice; settings: 10 nMol and 30 nMol per animal, 6 h after intratracheal instillation
Protocol: Male A/J mice (18-20 g), were sensitized by house dust mite (HDM) to established acute allergic asthma according to the protocol of Haspelagh et al (HASPESLAGH, E., DEBEUF, N., HAMMAD, H., LAMBRECHT, B. N. Murine Models of Allergic Asthma. Methods Mol Biol, 1559:121-136. 2017). Inflammatory cell infiltrations in the bronchoalveolar lavage fluid (BALF) were analyzed by flow cytometry.
The mice (n=5 per group) were treated with vehicle (PBS), SEQ ID NO: 19, SEQ ID NO: 24 or PnTx(19), at doses of 10 nMol and 30 nMol per animal, by intratracheal instillation, and material were collected 6 hours post-challenge.

Row | Compound | enhancing effect on relaxation induced by electric stimuli in strips of cavernous body contracted by phenylephrine (cavernosal strips) | Effectiveness (Emax) (%) [1] | Potency (pEC50) Molar [1] | neutrophil accumulation in the bronchoalveolar space [2] | relaxing effect on airway (tracheal ring) smooth muscle, in words ([1]; histamine-induced contraction ex vivo)
1 | CC[C@H](C)[C@H](NC(=O)[C@H](Cc1c[nH]c2ccccc12)NC(=O)[C@H](Cc1ccccc1)NC(C)=O)C(=O)N[C@@H](C)C(=O)N[C@@H](Cc1c[nH]c2ccccc12)C(=O)N[C@@H](Cc1ccc(O)cc1)C(=O)N[C@@H](CCCCN)C(=O)N[C@@H](CC(C)C)C(=O)N[C@@H](C)C(N)=O [SEQ ID NO: 19, Ac-Phe-Trp-Ile-Ala-Trp-Tyr-Lys-Leu-Ala-NH2] (Ac-FWIAWYKLA-NH2) | enhancing effect | 40.0 ± 3.4% | 7.3 ± 0.4 Molar | did not induce neutrophil accumulation | –
2 | CC[C@H](C)[C@H](NC(C)=O)C(=O)N[C@@H](C)C(=O)N[C@@H](Cc1c[nH]c2ccccc12)C(=O)N[C@@H](Cc1ccc(O)cc1)C(=O)N[C@@H](CCCCN)C(N)=O [SEQ ID NO: 24, Ac-Ile-Ala-Trp-Tyr-Lys-NH2] (Ac-IAWYK-NH2) | enhancing effect | 29.0 ± 1.0% | 7.9 ± 0.3 Molar | did not induce neutrophil accumulation | effective
